From US20210024542A1 (Torcept Therapeutics, Inc., priority 2018, published 2021)
Where two headings read alike, the source gives them in different places.

Legend:
SK-MEL-28 = assay: OncoPanel cell proliferation assay, SK-MEL-28; assay type: cell-based, human; conditions: for Relative cell count (%) Mean: SK-MEL-28
Protocol: (§1) Cells were grown in RPMI 1640, 10% FBS, 2 mM L-alanyl-L-glutamine, 1 mM Na pyruvate, or a special medium. Cells were seeded into 384-well plates and incubated in a humidified atmosphere of 5% CO2 at 37° C. Compounds were added the day following cell seeding. At the same time, a time zero untreated cell plate was generated. After a 3-day incubation period, cells were fixed and stained to allow fluorescence imaging of nuclei. Compounds (1 mM stock solutions) were serially diluted in half-log steps from the highest test concentration ([…]), and assayed over 10 concentrations with a maximum assay concentration of 0.1% DMSO. Automated fluorescence microscopy was carried out using a Molecular Devices ImageXpress Micro XL high-content imager, and images were collected with a 4× objective. 16-bit TIFF images were acquired and analyzed with MetaXpress 5.1.0.41 software.
(§2) Cell proliferation was measured by the fluorescence intensity of an incorporated nuclear dye. The output is referred to as the relative cell count, where the measured nuclear intensity is transformed to percent of control (POC) using the following formula: […]
(§3) Cellular response parameters were calculated using nonlinear regression to a sigmoidal single-site dose response model:
(§4) Where y is a response measured at concentration x, A and B are the lower and upper limits of the response, C is the concentration at the response midpoint (EC50), and D is the Hill Slope (Ref. 1).
(§5) EC50 is the test compound concentration at the curve inflection point or half the effective response (parameter C of the fitted curve solution). GI50 is the concentration needed to reduce the observed growth by half (midway between the curve maximum and the time zero value). “Cell Count Activity Area” is an estimate of the integrated area above the curve (Barretina, et al. The Cancer Cell Line Encyclopedia enables predictive modelling of anticancer drug sensitivity. Nature 483: 603-607). […] In rare instances, values <0 or >10 may be observed. […] Curve-fitting, calculations, and report generation was performed using a custom data reduction engine and MathIQ based software (AIM).

OVCAR3 = assay: OncoPanel cell proliferation assay, OVCAR3; conditions: for Relative cell count (%) Mean: OVCAR3
Protocol: (§6) Cells were seeded into 384-well plates and incubated in a humidified atmosphere of 5% CO2 at 37° C. Compounds were added the day following cell seeding. At the same time, a time zero untreated cell plate was generated. After a 3-day incubation period, cells were fixed and stained to allow fluorescence imaging of nuclei. Compounds (1 mM stock solutions) were serially diluted in half-log steps from the highest test concentration (1 micromol), and assayed over 10 concentrations with a maximum assay concentration of 0.1% DMSO. Automated fluorescence microscopy was carried out using a Molecular Devices ImageXpress Micro XL high-content imager, and images were collected with a 4× objective. 16-bit TIFF images were acquired and analyzed with MetaXpress 5.1.0.41 software.
(§7) GI50 is the concentration needed to reduce the observed growth by half (midway between the curve maximum and the time zero value). […] In rare instances, values <0 or >10 may be observed. […] Curve-fitting, calculations, and report generation was performed using a custom data reduction engine and MathIQ based software (AIM).

NCIH446 = assay: OncoPanel cell proliferation assay, NCIH446; assay type: cell-based, human; conditions: for Relative cell count (%) Mean: NCIH446
Protocol: as §1, §2, §3, §4, §5

AsPC-1 = assay: OncoPanel cell proliferation assay, AsPC-1; conditions: for Relative cell count (%) Mean: AsPC-1
Protocol: as §6, §7

U-87 MG = assay: OncoPanel cell proliferation assay, U-87 MG; assay type: cell-based, human
Protocol: as §1, §2, §3, §4, §5

SCaBER = assay: OncoPanel cell proliferation assay, SCaBER; assay type: cell-based, human
Protocol: as §1, §2, §3, §4, §5

[1] = Homo sapiens, 72 h, 3-day incubation, read-out: Cell Count EC50
[2] = Homo sapiens, 72 h, 3-day incubation, read-out: Cell Count GI50
[3] = Homo sapiens, 72 h, 3-day incubation, read-out: Cell Count IC50

CO[C@H]1C[C@@H]2CC[C@@H](C)[C@@](O)(O2)C(=O)C(=O)N2CCCC[C@H]2C(=O)O[C@H]([C@H](C)C[C@@H]2C[C@@H]3C[C@H]2C[C@H]3O)CC(=O)[C@H](C)/C=C(\C)[C@@H](O)[C@@H](OC)C(=O)[C@H](C)C[C@H](C)/C=C/C=C/C=C/1C [Formula I, 37R-hydroxynorbornylrapamycin]
GI50 (SK-MEL-28; Homo sapiens, 72 h, SK-MEL-28, 3-day incubation, read-out: Cell Count GI50): > 1000 nM | IC50 (SK-MEL-28; Homo sapiens, 72 h, SK-MEL-28, 3-day incubation, read-out: Cell Count IC50): > 1000 nM | EC50 (SK-MEL-28; Homo sapiens, Table 4 summary, SK-MEL-28, Melanoma, read-out: EC50): 0.19 nM | Cell Count Activity Area (SK-MEL-28; SK-MEL-28, scale 0-10): 1.87 | Relative cell count (%) Mean (SK-MEL-28; 1.00E−01 microM): 65.6% | Relative cell count (%) Mean (SK-MEL-28; 1.00E−02 microM): 71.4% | Relative cell count (%) Mean (SK-MEL-28; 1.00E−03 microM): 75.0% | Relative cell count (%) Mean (SK-MEL-28; 1.01E−04 microM): 88.2% | Relative cell count (%) Mean (SK-MEL-28; 3.17E−02 microM): 68.9% | Relative cell count (%) Mean (SK-MEL-28; 3.17E−03 microM): 70.8% | Relative cell count (%) Mean (SK-MEL-28; 3.18E−04 microM): 79.6% | Relative cell count (%) Mean (SK-MEL-28; 3.18E−05 microM): 93.8% | EC50 (OVCAR3; Homo sapiens): 650 nM | EC50 (OVCAR3; Homo sapiens, OVCAR-3, 72 h, read-out: Cell Count EC50): 646 nM | GI50 (OVCAR3; Homo sapiens, OVCAR-3, 72 h, read-out: Cell Count GI50): 65.8 nM | IC50 (OVCAR3; Homo sapiens, OVCAR-3, 72 h, read-out: Cell Count IC50): > 1000 nM | Cell Count Activity Area (OVCAR3; OVCAR3, scale 0-10): 2.43 | Relative cell count (%) Mean (OVCAR3; 1.00E+00 microM): 61.8% | Relative cell count (%) Mean (OVCAR3; 1.00E−01 microM): 72.8% | Relative cell count (%) Mean (OVCAR3; 1.00E−02 microM): 85.0% | Relative cell count (%) Mean (OVCAR3; 1.00E−03 microM): 90.2% | Relative cell count (%) Mean (OVCAR3; 1.01E−04 microM): 93.3% | Relative cell count (%) Mean (OVCAR3; 3.16E−01 microM): 61.7% | Relative cell count (%) Mean (OVCAR3; 3.17E−02 microM): 79.9% | Relative cell count (%) Mean (OVCAR3; 3.17E−03 microM): 85.2% | Relative cell count (%) Mean (OVCAR3; 3.18E−04 microM): 89.7% | Relative cell count (%) Mean (OVCAR3; 3.18E−05 microM): 106.9% | EC50 (NCIH446; Homo sapiens, NCI-H446, 72 h, NCIH446, 3-day incubation, read-out: Cell Count EC50): 1.37 nM | GI50 (NCIH446; Homo sapiens, NCI-H446, 72 h, NCIH446, 3-day incubation, read-out: Cell Count GI50): 75.5 nM | IC50 (NCIH446; Homo sapiens, NCI-H446, 72 h, NCIH446, 3-day incubation, read-out: Cell Count IC50): > 1000 nM | Cell Count Activity Area (NCIH446; NCIH446, scale 0-10): 1.96 | Relative cell count (%) Mean (NCIH446; 1.00E+00 microM): 69.7% | Relative cell count (%) Mean (NCIH446; 1.00E−01 microM): 77.0% | Relative cell count (%) Mean (NCIH446; 1.00E−02 microM): 75.9% | Relative cell count (%) Mean (NCIH446; 1.00E−03 microM): 88.1% | Relative cell count (%) Mean (NCIH446; 1.01E−04 microM): 102.8% | Relative cell count (%) Mean (NCIH446; 3.16E−01 microM): 71.2% | Relative cell count (%) Mean (NCIH446; 3.17E−02 microM): 85.0% | Relative cell count (%) Mean (NCIH446; 3.17E−03 microM): 82.3% | Relative cell count (%) Mean (NCIH446; 3.18E−04 microM): 100.1% | Relative cell count (%) Mean (NCIH446; 3.18E−05 microM): 99.4% | Cell Count Activity Area (AsPC-1; AsPC-1, scale 0-10): 2.50 | Relative cell count (%) Mean (AsPC-1; 1.00E+00 microM): 64.8% | Relative cell count (%) Mean (AsPC-1; 1.00E−01 microM): 74.0% | Relative cell count (%) Mean (AsPC-1; 1.00E−02 microM): 68.9% | Relative cell count (%) Mean (AsPC-1; 1.00E−03 microM): 81.7% | Relative cell count (%) Mean (AsPC-1; 1.01E−04 microM): 89.6% | Relative cell count (%) Mean (AsPC-1; 3.16E−01 microM): 67.9% | Relative cell count (%) Mean (AsPC-1; 3.17E−02 microM): 74.7% | Relative cell count (%) Mean (AsPC-1; 3.17E−03 microM): 77.8% | Relative cell count (%) Mean (AsPC-1; 3.18E−04 microM): 94.5% | Relative cell count (%) Mean (AsPC-1; 3.18E−05 microM): 99.5% | EC50 (AsPC-1; Homo sapiens, ASPC1): 0.52 nM | EC50 (AsPC-1; Homo sapiens, ASPC1, 72 h, read-out: Cell Count EC50): 0.519 nM | GI50 (AsPC-1; Homo sapiens, ASPC1, 72 h, read-out: Cell Count GI50): 8.07 nM | IC50 (AsPC-1; Homo sapiens, ASPC1, 72 h, read-out: Cell Count IC50): > 1000 nM | Relative cell count (%) Mean (U-87 MG; 1.00E+00 microM): 51.2% | Relative cell count (%) Mean (U-87 MG; 1.00E−01 microM): 54.5% | Relative cell count (%) Mean (U-87 MG; 1.00E−02 microM): 54.7% | Relative cell count (%) Mean (U-87 MG; 1.00E−03 microM): 64.8% | Relative cell count (%) Mean (U-87 MG; 1.01E−04 microM): 87.3% | Relative cell count (%) Mean (U-87 MG; 3.16E−01 microM): 51.6% | Relative cell count (%) Mean (U-87 MG; 3.17E−02 microM): 50.4% | Relative cell count (%) Mean (U-87 MG; 3.17E−03 microM): 58.9% | Relative cell count (%) Mean (U-87 MG; 3.18E−04 microM): 71.8% | Relative cell count (%) Mean (U-87 MG; 3.18E−05 microM): 93.7% | EC50 (U-87 MG; [1]): 0.206 nM | GI50 (U-87 MG; [2]): 0.509 nM | IC50 (U-87 MG; [3]): 48.8 nM | Cell Count Activity Area (U-87 MG; scale 0-10): 3.92 | Relative cell count (%) Mean (SCaBER; 1.00E+00 microM): 32.4% | Relative cell count (%) Mean (SCaBER; 1.00E−01 microM): 36.9% | Relative cell count (%) Mean (SCaBER; 1.00E−02 microM): 35.4% | Relative cell count (%) Mean (SCaBER; 1.00E−03 microM): 44.7% | Relative cell count (%) Mean (SCaBER; 1.01E−04 microM): 61.7% | Relative cell count (%) Mean (SCaBER; 3.16E−01 microM): 33.0% | Relative cell count (%) Mean (SCaBER; 3.17E−02 microM): 34.0% | Relative cell count (%) Mean (SCaBER; 3.17E−03 microM): 38.7% | Relative cell count (%) Mean (SCaBER; 3.18E−04 microM): 55.4% | Relative cell count (%) Mean (SCaBER; 3.18E−05 microM): 81.9% | EC50 (SCaBER; [1]): 0.0947 nM | GI50 (SCaBER; [2]): 0.262 nM | IC50 (SCaBER; [3]): 0.451 nM | EC50 (SCaBER; Homo sapiens, Table 4 summary, Bladder, read-out: EC50): 0.095 nM | Cell Count Activity Area (SCaBER; scale 0-10): 5.46
